≈ marks a conversion by molar mass, not a printed value.
Key:
Enterococcus sp. = assay: in vitro antibacterial evaluation, MIC by broth dilution; assay type: cell-based; conditions: broth dilution, 18 hours at 35° C.
Outline: (§1)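 Step 1: dilute antibiotic across 64-0.06 μg/mL in Muller-Hinton II […]. Step 2: inoculate at 5×10^5 CFU/mL.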

Escherichia coli = assay: as above; assay type: cell-based; conditions: 18 hours at 35° C.
Outline: as §1

Staphylococcus sp. = assay: as above; assay type: cell-based; conditions: broth dilution, 18 hours at 35° C.
Outline: as §1

Streptococcus sp. = assay: as above; assay type: cell-based; conditions: broth dilution, 18 hours at 35° C.
Outline: as §1

[1] = test system: Streptococcus pneumoniae (GC 1894); assay: acute lethal infection in mice; assay type: in vivo; conditions: female CD-1 mice, intraperitoneal challenge, intravenous 30 min. after infection, 7 day survival
Outline: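 Female CD-1 mice (20+/−2 gm) were infected intraperitoneally with enough bacteria, suspended in trypticase soy broth or hog gastric mucin, to kill untreated controls within 24-48 hr. Compound in saline or 5% dextrose was given intravenously 30 min post-infection, five mice per dose. ED50 came from pooled 7 day survival of 3 tests.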

Staphylococcus aureus = assay: zone of inhibition, agar well assay plate; assay type: cell-based; conditions: 25 μl of extract per 5 mm well, incubated overnight at 37° C.
Description: Protocol for Assay Plate Staphylococcus aureus
Inoculate 10 mL of Tryptic Soy Broth with a loopful of slant culture, Staphylococcus aureus, and place in a stationary rack at 37° C. After 16-18 hour incubation, the Optical Density (OD) of the culture is read@A600 nm, using a 1:10 dilution. OD should be between 0.1-0.3, and if not adjust with Tryptic Soy Broth. A 40 mL sample of Nutrient Agar, pH 6.8 is inoculated with 90 ul of S. aureus culture and poured into a sterile petri dish. When the agar has solidified, wells (5 mm) are plated using an automated welling device. Wells are inoculated with 25 μl of extract and incubated overnight at 37° C. Zones of inhibition are measured and recorded the following morning.

CC(c1ccccc1)C1NC(=O)CNC(=O)C(CO)NC(=O)C(C(O)C2CNC(=N)N2C2OC(CO)C(O)C(O)C2O)NC(=O)C(C(O)C2CNC(=N)N2)NC(=O)C(Cc2ccc(OC3OC(CO)C(OC4OC5COC(C6CCCCC6)OC5C(O)C4O)C(O)C3O)cc2)NC1=O (stereo not drawn) [Example 112, Cyclo[glycyl-β-methylphenylalanyl-O-[4-O-[4,6-O-(cyclohexylmethylene)hexopyranosyl]-hexopyranosyl]tyrosyl-3-(2-iminoimidazolidin-4-yl)seryl-3-(3-hexopyranosyl-2-iminoimidazolidin-4-yl)serylseryl]]
MIC Enterococcus avium (GC 4558) (Enterococcus sp.; Enterococcus avium (GC 4558)): 2 µg/mL (≈ 1.44 µM)
MIC Enterococcus faecalis (ATCC 29212) (Enterococcus sp.; Enterococcus faecalis (ATCC 29212)): 2 µg/mL (≈ 1.44 µM)
MIC Enterococcus faecalis (GC 2242) (Enterococcus sp.; Enterococcus faecalis (GC 2242)): 1 to 2 µg/mL
MIC Enterococcus faecalis (GC 2691) (Enterococcus sp.; Enterococcus faecalis (GC 2691)): 2 µg/mL (≈ 1.44 µM)
MIC Enterococcus faecalis (GC 3059) (Enterococcus sp.; Enterococcus faecalis (GC 3059)): 2 µg/mL (≈ 1.44 µM)
MIC Enterococcus faecalis (GC 4552) (Enterococcus sp.; Enterococcus faecalis (GC 4552)): 2 µg/mL (≈ 1.44 µM)
MIC Enterococcus faecalis (GC 4553) (Enterococcus sp.; Enterococcus faecalis (GC 4553)): 2 to 4 µg/mL
MIC Enterococcus faecalis (GC 4554) (Enterococcus sp.; Enterococcus faecalis (GC 4554)): 2 µg/mL (≈ 1.44 µM)
MIC Enterococcus faecalis (GC 6189) (Enterococcus sp.; Enterococcus faecalis (GC 6189)): 2 µg/mL (≈ 1.44 µM)
MIC Enterococcus faecium (GC 2243) (Enterococcus sp.; Enterococcus faecium (GC 2243)): 1 to 2 µg/mL
MIC Enterococcus faecium (GC 4556) (Enterococcus sp.; Enterococcus faecium (GC 4556)): 2 µg/mL (≈ 1.44 µM)
MIC Enterococcus faecium (GC 4557) (Enterococcus sp.; Enterococcus faecium (GC 4557)): 0.5 to 2 µg/mL
MIC Enterococcus faecalis (ATCC 29212) (Enterococcus sp.; strain ATCC 29212): 2 µg/mL (≈ 1.44 µM)
MIC Enterococcus faecalis (GC 2242) (Enterococcus sp.; strain GC 2242): 1 to 2 µg/mL
MIC Enterococcus faecium (GC 2243) (Enterococcus sp.; strain GC 2243): 1 to 2 µg/mL
MIC Enterococcus faecalis (GC 2691) (Enterococcus sp.; strain GC 2691): 2 µg/mL (≈ 1.44 µM)
MIC Enterococcus faecalis (GC 3059) (Enterococcus sp.; strain GC 3059): 2 µg/mL (≈ 1.44 µM)
MIC Enterococcus faecalis (GC 4552) (Enterococcus sp.; strain GC 4552): 2 µg/mL (≈ 1.44 µM)
MIC Enterococcus faecalis (GC 4553) (Enterococcus sp.; strain GC 4553): 2 to 4 µg/mL
MIC Enterococcus faecalis (GC 4554) (Enterococcus sp.; strain GC 4554): 2 µg/mL (≈ 1.44 µM)
MIC Enterococcus faecium (GC 4556) (Enterococcus sp.; strain GC 4556): 2 µg/mL (≈ 1.44 µM)
MIC Enterococcus faecium (GC 4557) (Enterococcus sp.; strain GC 4557): 0.5 to 2 µg/mL
MIC Enterococcus avium (GC 4558) (Enterococcus sp.; strain GC 4558): 2 µg/mL (≈ 1.44 µM)
MIC Enterococcus faecalis (GC 6189) (Enterococcus sp.; strain GC 6189): 2 µg/mL (≈ 1.44 µM)
MIC Escherichia coli (ATCC 25922) (Escherichia coli; strain ATCC 25922): 32 µg/mL (≈ 23 µM)
MIC Escherichia coli (GC 4559) (Escherichia coli; strain GC 4559): >16 µg/mL
MIC Escherichia coli (GC 4560) (Escherichia coli; strain GC 4560): 1 µg/mL (≈ 0.72 µM)
MIC Coagulase Negative Staphylococcus (GC 4547) (Staphylococcus sp.): 0.5 to 1 µg/mL
MIC Coagulase Negative Staphylococcus (GC 4548) (Staphylococcus sp.): 0.5 to 1 µg/mL
MIC Coagulase Negative Staphylococcus (GC 4549) (Staphylococcus sp.): 0.5 to 1 µg/mL
MIC Coagulase Negative Staphylococcus (GC 4551) (Staphylococcus sp.): 0.5 to 1 µg/mL
MIC Coagulase Negative Staphylococcus (GC 6257) (Staphylococcus sp.): 1 µg/mL (≈ 0.72 µM)
MIC Coagulase Negative Staphylococcus (ID-3941) (Staphylococcus sp.): 0.5 µg/mL (≈ 0.36 µM)
MIC Staphylococcus aureus (ATCC 29213) (Staphylococcus sp.): 1 µg/mL (≈ 0.72 µM)
MIC Staphylococcus aureus (GC 1131) (Staphylococcus sp.): 0.5 to 1 µg/mL
MIC Staphylococcus aureus (GC 4541) (Staphylococcus sp.): 1 µg/mL (≈ 0.72 µM)
MIC Staphylococcus aureus (GC 4542) (Staphylococcus sp.): 1 µg/mL (≈ 0.72 µM)
MIC Staphylococcus aureus (GC 4544) (Staphylococcus sp.): 0.5 to 2 µg/mL
MIC Staphylococcus aureus (GC 4545) (Staphylococcus sp.): 1 to 2 µg/mL
MIC Staphylococcus aureus-SMITH (GC 4543) (Staphylococcus sp.): 0.5 to 1 µg/mL
MIC Staphylococcus haemolyticus (GC 4546) (Staphylococcus sp.): 1 µg/mL (≈ 0.72 µM)
MIC Staphylococcus aureus (GC 1131) (Staphylococcus sp.; inoculum 5×10^5 CFU/mL, strain GC 1131): 0.5 to 1 µg/mL
MIC Staphylococcus aureus (ATCC 29213) (Staphylococcus sp.; strain ATCC 29213): 1 µg/mL (≈ 0.72 µM)
MIC Staphylococcus aureus (GC 4541) (Staphylococcus sp.; strain GC 4541): 1 µg/mL (≈ 0.72 µM)
MIC Staphylococcus aureus (GC 4542) (Staphylococcus sp.; strain GC 4542): 1 µg/mL (≈ 0.72 µM)
MIC Staphylococcus aureus (GC 4544) (Staphylococcus sp.; strain GC 4544): 0.5 to 2 µg/mL
MIC Staphylococcus aureus (GC 4545) (Staphylococcus sp.; strain GC 4545): 1 to 2 µg/mL
MIC Staphylococcus haemolyticus (GC 4546) (Staphylococcus sp.; strain GC 4546): 1 µg/mL (≈ 0.72 µM)
MIC Coagulase Negative Staphylococcus (GC 4547) (Staphylococcus sp.; strain GC 4547): 0.5 to 1 µg/mL
MIC Coagulase Negative Staphylococcus (GC 4548) (Staphylococcus sp.; strain GC 4548): 0.5 to 1 µg/mL
MIC Coagulase Negative Staphylococcus (GC 4549) (Staphylococcus sp.; strain GC 4549): 0.5 to 1 µg/mL
MIC Coagulase Negative Staphylococcus (GC 4551) (Staphylococcus sp.; strain GC 4551): 0.5 to 1 µg/mL
MIC Coagulase Negative Staphylococcus (GC 6257) (Staphylococcus sp.; strain GC 6257): 1 µg/mL (≈ 0.72 µM)
MIC Coagulase Negative Staphylococcus (ID-3941) (Staphylococcus sp.; strain ID-3941): 0.5 µg/mL (≈ 0.36 µM)
MIC Staphylococcus aureus-SMITH (GC 4543) (Staphylococcus sp.; strain SMITH GC 4543): 0.5 to 1 µg/mL
MIC Streptococcus agalactiae (GC 4564) (Streptococcus sp.; Streptococcus agalactiae (GC 4564)): <0.12 µg/mL
MIC Streptococcus pneumoniae (GC 4565) (Streptococcus sp.; Streptococcus pneumoniae (GC 4565)): <0.12 µg/mL
MIC Streptococcus pyogenes (GC 4563) (Streptococcus sp.; Streptococcus pyogenes (GC 4563)): <0.12 µg/mL
MIC Streptococcus pyogenes (ID-3187) (Streptococcus sp.; Streptococcus pyogenes (ID-3187)): 0.5 µg/mL (≈ 0.36 µM)
MIC Streptococcus pyogenes (GC 4563) (Streptococcus sp.; strain GC 4563): <0.12 µg/mL
MIC Streptococcus agalactiae (GC 4564) (Streptococcus sp.; strain GC 4564): <0.12 µg/mL
MIC Streptococcus pneumoniae (GC 4565) (Streptococcus sp.; strain GC 4565): <0.12 µg/mL
MIC Streptococcus pyogenes (ID-3187) (Streptococcus sp.; strain ID-3187): 0.5 µg/mL (≈ 0.36 µM)
median effective dose (ED50), Streptococcus pneumoniae (GC 1894) [1]: 0.02 mg/kg

CCCCCCC(=O)OC1C(OC2C(CO)OC(Oc3ccc(CC4NC(=O)C(C(C)c5ccccc5)NC(=O)CNC(=O)C(CO)NC(=O)C(C(O)C5CNC(=N)N5C5OC(CO)C(O)C(O)C5O)NC(=O)C(C(O)C5CNC(=N)N5)NC4=O)cc3)C(O)C2O)OC(CO)C(O)C1O (stereo not drawn) [Example 274a, Cyclo[glycyl-β-methylphenylalanyl-O-[4-O-(2-O-heptanoyl-hexopyranosyl)-hexopyranosyl]tyrosyl-3-(2-iminoimidazolidin-4-yl)seryl-3-(3-hexopyranosyl-2-iminoimidazolidin-4-yl)serylseryl]]
Zone of Inhibition vs. S. aureus (Staphylococcus aureus): 9 mm

CCCCCCC(=O)OC1C(O)C(CO)OC(OC2C(CO)OC(Oc3ccc(CC4NC(=O)C(C(C)c5ccccc5)NC(=O)CNC(=O)C(CO)NC(=O)C(C(O)C5CNC(=N)N5C5OC(CO)C(O)C(O)C5O)NC(=O)C(C(O)C5CNC(=N)N5)NC4=O)cc3)C(O)C2O)C1O (stereo not drawn) [Example 274b, Cyclo[glycyl-β-methylphenylalanyl-O-[4-O-(3-O-heptanoyl-hexopyranosyl)-hexopyranosyl]tyrosyl-3-(2-iminoimidazolidin-4-yl)seryl-3-(3-hexopyranosyl-2-iminoimidazolidin-4-yl)serylseryl]]
Zone of Inhibition vs. S. aureus (Staphylococcus aureus): 10 mm
